Laboratory results: US20250179061A1 (SIRONAX LTD., priority 2022, published 2025)
Where a name gives a salt, the structure may show the parent alone.

test system: HT-29 cells; assay: HT-29 necroptosis cell viability assay (TNF-α/SMAC mimetic/zVAD-FMK, CellTiter-Glo); assay type: cell-based; settings: Homo sapiens, HT-29, HT-29 cells, necroptosis induced by TNF-α/SMAC mimetic/zVAD-FMK, CellTiter-Glo; read-out: Activity (IC50 class)
Summary of the method: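 Necroptosis was triggered by TNF-α (10 ng/ml), SMAC mimetic (6 μM) and zVAD-FMK (10 μM) in serum-free medium during 20 h compound exposure (10 concentrations, threefold steps) of HT-29 cells. IC50 from duplicate dose-responses uses CellTiter-Glo ATP luminescence as viability read-out.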

SMILES	IC50 [nM]
O=c1n(Cc2c(F)cccc2F)cnn1-c1ccc(Oc2ccnc(Cl)c2)cc1 [Example 662, 2-(4-((2-chloropyridin-4-yl)oxy)phenyl)-4-(2,6-difluorobenzyl)-2,4-dihydro-3H-1,2,4-triazol-3-one]	100 to 1000
Cc1nc(C(N)=O)sc1Oc1ncc(-n2nc3n(c2=O)[C@H](c2ccccc2)CC3)cc1F (single isomer, unassigned) [Example 638]	< 100
O=c1n(Cc2c(F)cccc2F)cnn1-c1ccc(Oc2cc(N3CC4(C3)CN(C3CC3)C4)ncc2F)c(F)c1 [Example 680, 2-(4-((2-(6-cyclopropyl-2,6-diazaspiro[3.3]heptan-2-yl)-5-fluoropyridin-4-yl)oxy)-3-fluorophenyl)-4-(2,6-difluorobenzyl)-2,4-dihydro-3H-1,2,4-triazol-3-one]	< 100

same assay, conditions: Homo sapiens, HT-29, HT-29 necroptosis cell viability assay; class symbols for IC50; read-out: Activity

SMILES	IC50 [nM]
Cc1nc(C#N)sc1Oc1ccc(-n2ncn(Cc3ncccc3Cl)c2=O)cc1F [Example 576, 5-(4-(4-((3-chloropyridin-2-yl)methyl)-5-oxo-4,5-dihydro-1H-1,2,4-triazol-1-yl)-2-fluorophenoxy)-4-methylthiazole-2-carbonitrile]	< 100
Cc1nc(C(=O)N2CC(C#N)C2)sc1Oc1ccc(-n2ncn(Cc3ccccc3F)c2=O)cc1F [Example 592, 1-(5-(2-fluoro-4-(4-(2-fluorobenzyl)-5-oxo-4,5-dihydro-1H-1,2,4-triazol-1-yl)phenoxy)-4-methylthiazole-2-carbonyl)azetidine-3-carbonitrile]	< 100
CCC1(Nc2cc(Oc3ccc(-n4ncn(Cc5c(F)cccc5F)c4=O)cc3)ccn2)CC1 [Example 528, 4-(2,6-difluorobenzyl)-2-(4-((2-((1-ethylcyclopropyl)amino)pyridin-4-yl)oxy)phenyl)-2,4-dihydro-3H-1,2,4-triazol-3-one]	100 to 1000
Cc1nc(C#N)sc1Oc1ccc(-n2ncn(Cc3c(F)cccc3C#N)c2=O)cc1F [Example 571, 5-(4-(4-(2-cyano-6-fluorobenzyl)-5-oxo-4,5-dihydro-1H-1,2,4-triazol-1-yl)-2-fluorophenoxy)-4-methylthiazole-2-carbonitrile]	< 100
Cn1nc(CC#N)cc1Oc1ccc(-n2ncn(Cc3c(F)cccc3F)c2=O)cc1F [Example 140, 2-(5-(4-(4-(2,6-difluorobenzyl)-5-oxo-4,5-dihydro-1H-1,2,4-triazol-1-yl)-2-fluorophenoxy)-1-methyl-1H-pyrazol-3-yl)acetonitrile]	< 100
Cc1nc(C#N)sc1Oc1ccc(-n2ncn(Cc3ccccc3F)c2=O)cc1F [Example 561, 5-(2-fluoro-4-(4-(2-fluorobenzyl)-5-oxo-4,5-dihydro-1H-1,2,4-triazol-1-yl)phenoxy)-4-methylthiazole-2-carbonitrile]	< 100
Cc1nc(C2(O)CCC2)sc1Oc1ccc(-n2ncn(Cc3c(F)cccc3F)c2=O)cc1F [Example 586, 4-(2,6-difluorobenzyl)-2-(3-fluoro-4-((2-(1-hydroxycyclobutyl)-4-methylthiazol-5-yl)oxy)phenyl)-2,4-dihydro-3H-1,2,4-triazol-3-one]	< 100
Cc1nn(-c2ccc(S(=O)(=O)N3CCN(C4CCCOC4)CC3)cc2)c(=O)n1Cc1ccccc1 (stereo not shown) [Example 626, 4-benzyl-5-methyl-2-(4-((4-(tetrahydro-2H-pyran-3-yl)piperazin-1-yl)sulfonyl)phenyl)-2,4-dihydro-3H-1,2,4-triazol-3-one]	1000 to 10000
Cc1nc(C2=CCNC2)sc1Oc1ccc(-n2ncn(Cc3c(F)cccc3F)c2=O)cc1 [Example 542, 4-(2,6-difluorobenzyl)-2-(4-((2-(2,5-dihydro-1H-pyrrol-3-yl)-4-methylthiazol-5-yl)oxy)phenyl)-2,4-dihydro-3H-1,2,4-triazol-3-one]	< 100
Cc1nc(CO)sc1Oc1ccc(-n2ncn(Cc3c(F)cccc3F)c2=O)cc1 [Example 157, 4-(2,6-difluorobenzyl)-2-(4-((2-(hydroxymethyl)-4-methylthiazol-5-yl)oxy)phenyl)-2,4-dihydro-3H-1,2,4-triazol-3-one]	< 100
Cc1nc(C(N)=O)sc1Oc1ccc(-n2ncn(Cc3ncccc3F)c2=O)cc1F [Example 606, 5-(2-fluoro-4-(4-((3-fluoropyridin-2-yl)methyl)-5-oxo-4,5-dihydro-1H-1,2,4-triazol-1-yl)phenoxy)-4-methylthiazole-2-carboxamide]	< 100
Cc1nc(Oc2cccnc2)sc1-n1ncn(Cc2c(F)cccc2F)c1=O [Example 166, 4-(2,6-difluorobenzyl)-2-(4-methyl-2-(pyridin-3-yloxy)thiazol-5-yl)-2,4-dihydro-3H-1,2,4-triazol-3-one]	100 to 1000

same assay, conditions: Homo sapiens, HT-29, HT-29 necroptosis cell viability, IC50 class symbols; read-out: Activity

SMILES	IC50 [nM]
N#CC1CCN(c2cc(Oc3ccc(-n4ncn(Cc5c(F)cccc5F)c4=O)cc3)ccn2)C1 (stereo not shown) [Example 384, 1-(4-(4-(4-(2,6-difluorobenzyl)-5-oxo-4,5-dihydro-1H-1,2,4-triazol-1-yl)phenoxy)pyridin-2-yl)pyrrolidine-3-carbonitrile]	< 100
Cc1nc(C(C)(C)O)sc1Oc1ccc(-n2ncn(Cc3ncccc3Cl)c2=O)cc1F [Example 466, 4-((3-chloropyridin-2-yl)methyl)-2-(3-fluoro-4-((2-(2-hydroxypropan-2-yl)-4-methylthiazol-5-yl)oxy)phenyl)-2,4-dihydro-3H-1,2,4-triazol-3-one]	< 100
CCOC1CN(c2cc(Oc3ccc(-n4ncn(Cc5c(F)cccc5F)c4=O)cc3F)c(Cl)cn2)C1 [Example 365, 2-(4-((5-chloro-2-(3-ethoxyazetidin-1-yl)pyridin-4-yl)oxy)-3-fluorophenyl)-4-(2,6-difluorobenzyl)-2,4-dihydro-3H-1,2,4-triazol-3-one]	< 100
C[C@H]1[C@@H](N)CN1c1cc(Oc2ccc(-n3ncn(Cc4c(F)cccc4F)c3=O)cc2F)c(Cl)cn1 [Example 425, 2-(4-((2-((2S,3S)-3-amino-2-methylazetidin-1-yl)-5-chloropyridin-4-yl)oxy)-3-fluorophenyl)-4-(2,6-difluorobenzyl)-2,4-dihydro-3H-1,2,4-triazol-3-one]	< 100
Cc1nc(N2CC(N)(CF)C2)sc1Oc1ccc(-n2ncn(Cc3c(F)cccc3F)c2=O)cc1F [Example 452, 2-(4-((2-(3-amino-3-(fluoromethyl)azetidin-1-yl)-4-methylthiazol-5-yl)oxy)-3-fluorophenyl)-4-(2,6-difluorobenzyl)-2,4-dihydro-3H-1,2,4-triazol-3-one]	< 100
Cc1nc([C@@H](C)O)sc1Oc1ccc(-n2ncn(Cc3c(F)cccc3F)c2=O)cc1F (single isomer, unassigned) [Example 461]	< 100
CN(c1cc(Oc2ccc(-n3ncn(Cc4c(F)cccc4F)c3=O)cc2)ccn1)C1CCC1 [Example 352, 2-(4-((2-(cyclobutyl(methyl)amino)pyridin-4-yl)oxy)phenyl)-4-(2,6-difluorobenzyl)-2,4-dihydro-3H-1,2,4-triazol-3-one]	100 to 1000
Cc1cnc(N2CC(C)(C#N)C2)cc1Oc1ccc(-n2ncn(Cc3c(F)cccc3F)c2=O)cc1F [Example 294, 1-(4-(4-(4-(2,6-difluorobenzyl)-5-oxo-4,5-dihydro-1H-1,2,4-triazol-1-yl)-2-fluorophenoxy)-5-methylpyridin-2-yl)-3-methylazetidine-3-carbonitrile]	< 100
CCOC1CN(c2cc(Oc3ccc(-n4ncn(Cc5c(F)cccc5F)c4=O)cc3F)c(F)cn2)C1 [Example 364, 4-(2,6-difluorobenzyl)-2-(4-((2-(3-ethoxyazetidin-1-yl)-5-fluoropyridin-4-yl)oxy)-3-fluorophenyl)-2,4-dihydro-3H-1,2,4-triazol-3-one]	< 100
CCOC(=O)c1noc(Oc2ccc(-n3ncn(Cc4c(F)cccc4F)c3=O)cc2F)c1C [Example 477, ethyl 5-(4-(4-(2,6-difluorobenzyl)-5-oxo-4,5-dihydro-1H-1,2,4-triazol-1-yl)-2-fluorophenoxy)-4-methylisoxazole-3-carboxylate]	100 to 1000

same assay, conditions: Homo sapiens; HT-29 cells stimulated with TNF-α (10 ng/ml), SMAC mimetic (6 μM) and zVAD-FMK (10 μM); 20 hours; CellTiter-Glo ATP luminescence; geometric mean IC50 from 10 points; read-out: Activity

SMILES	IC50 [nM]
Cc1nc(N2CCC(N)(C(F)(F)F)C2)sc1Cc1ccc(-n2ncn(Cc3c(F)cccc3F)c2=O)cc1F (stereo not shown) [Example 60, 2-(4-((2-(3-amino-3-(trifluoromethyl)pyrrolidin-1-yl)-4-methylthiazol-5-yl)methyl)-3-fluorophenyl)-4-(2,6-difluorobenzyl)-2,4-dihydro-3H-1,2,4-triazol-3-one formate]	< 100
CCOC(=O)c1scnc1Oc1ccc(-n2ncn(Cc3c(F)cccc3F)c2=O)cc1F [Example 93, ethyl 4-(4-(4-(2,6-difluorobenzyl)-5-oxo-4,5-dihydro-1H-1,2,4-triazol-1-yl)-2-fluorophenoxy)thiazole-5-carboxylate]	100 to 1000
CC(=O)Nc1nc(C)c(Oc2ccc(-n3ncn(Cc4c(F)cccc4F)c3=O)cc2F)s1 [Example 89, N-(5-(4-(4-(2,6-difluorobenzyl)-5-oxo-4,5-dihydro-1H-1,2,4-triazol-1-yl)-2-fluorophenoxy)-4-methylthiazol-2-yl)acetamide]	< 100
Cc1ncsc1Oc1ccc(-n2ncn(Cc3c(F)cccc3F)c2=O)cc1F [Example 2, 4-(2,6-difluorobenzyl)-2-(3-fluoro-4-((4-methylthiazol-5-yl)oxy)phenyl)-2,4-dihydro-3H-1,2,4-triazol-3-one]	< 100
Cc1ncsc1Oc1ccc(-n2ncn(Cc3c(F)cccc3F)c2=O)cc1Cl [Example 5, 2-(3-chloro-4-((4-methylthiazol-5-yl)oxy)phenyl)-4-(2,6-difluorobenzyl)-2,4-dihydro-3H-1,2,4-triazol-3-one]	< 100
Cc1nc(C(N)=O)sc1Oc1ccc(-n2nc3n(c2=O)[C@H](c2ccccc2)CC3)cc1Cl (single isomer, unassigned) [Example 16]	< 100
